This passage reports hygroscopicity and thermal stability results from US20150299182A1, “CRYSTALLINE FORMS OF (1S)-1-[5-(AMINO)-1,2,4-THIADIAZOL-3-YL]ETHANE-1,2-DIOL” (Array BioPharma Inc., priority 2012, published 2015).

A short description of data set [1]: Moisture balance / vapor sorption (hygroscopicity). To be noted: vapor sorption, 5% to 95% relative humidity. It is filed as physicochemical. The protocol: Moisture balance data was collected using a VTI SGA 100 or SGA CX symmetrical vapor sorption analyzer. Relative humidity was varied in increments or 5%, starting at 5% relative humidity thereby increasing to 95% relative humidity, and then undergoing a drying cycle back to 5% relative humidity. Equilibrium criteria was set at 0.01% weight change in 1 minute with a max equilibrium time of 180 minutes. Approximately 1-15 mg of sample was used.

A short description of data set [2]: Thermal stability characteristics. In kind it is physicochemical. The procedure:
The thermal properties of AMG151 samples were characterized using a DSC Q1000 or DSC Q 100, TA Instruments, differential scanning calorimetry, and a TGA Q 500, TA Instruments, thermogravimetric analyzer. Data analysis was performed utilizing Universal Analysis 2000, TA Instruments. Heating rates of 10° C./min were used over a variety of temperature ranges for differential scanning calorimetry and thermogravimetric analysis. Samples ranging from <1-5 mg were prepared in crimped or open aluminum pans for DSC analysis.

Structures can show the parent of a compound that is named as a salt.

As for `Cc1ncccc1Oc1cc(Sc2ccccn2)cnc1Nc1nc([C@H](O)CO)ns1` [mono-hydrochloride salt Form C, (1S)-1-[5-({3-[(2-methylpyridin-3-yl)oxy]-5-(pyridin-2-ylsulfanyl)pyridin-2-yl}amino)-1,2,4-thiadiazol-3-yl]ethane-1,2-diol], the hygroscopicity result in data set [1] is listed as “hygroscopic”. The thermal stability result in data set [2] is “less preferred thermal stability characteristics”.
